Test results reported in patent publication US4942159A, “Cephem compounds, their production and use” (Takeda Chemical Industries, Ltd., priority 1987, dated 1990).
≈ marks a conversion by molar mass, not a printed value. Where “and” joins values, the source holds several entries; their conditions need not be identical. Identical values can stand only once.

Key:
[1] = test system: Pseudomonas aeruginosa P 9; experiment: MIC by agar dilution method (Trypticase soy agar), Pseudomonas aeruginosa P 9; assay type: cell-based; conditions: P9, (4) Pseudomonas aeruginosa P 9, 37° C. overnight
Procedure: (§1) The MIC of each test compound (the compounds obtained in Examples 1 and 2) was determined by the agar dilution method. Thus, 1.0 ml aliquots of serial dilutions of the test compound in water were poured into petri dishes, and 9.0 ml of Trypticase soy agar is added to each dish and stirred. A suspension (about 10^8 CFU/ml) of each test organism is smeared on each agar plate, which is then incubated at 37° C. overnight. The lowest concentration of the test compound which causes a complete growth inhibition of the test organism was determined and taken as the MIC (minimal inhibitory concentration) against the same organism.
(4) Pseudomonas aeruginosa P 9

[2] = test system: Staphylococcus aureus 308 A-1; experiment: MIC by agar dilution method (Trypticase soy agar), Staphylococcus aureus 308 A-1; assay type: cell-based; conditions: 308A1, 37° C. overnight
Procedure: as §1
(1) Staphylococcus aureus 308 A-1

[3] = test system: Proteus morganii IFO 3168; experiment: MIC by agar dilution method (Trypticase soy agar), Proteus morganii IFO 3168; assay type: cell-based; conditions: Morganella morganii, IFO3168, (3) Proteus morganii IFO 3168, 37° C. overnight
Procedure: as §1
(3) Proteus morganii IFO 3168

[4] = concentration levels in plasma upon rectal administration (suppository), by biological assay; assay type: in vivo, rat (Wistar; conditions: rectal suppository 50 mg/kg, fasted male Wistar rats
Procedure: Employing the compound (I) prepared in Example 1 mentioned below, the concentration levels in plasma (plasma levels of said compound) upon rectal administration were measured by the procedure described below.
Suppositories containing the product of Example 1 which were prepared according to Example 3 mentioned below were given (50 mg/kg in terms of said product) into the rectum of three male rats No. 1 to 3 (Wistar, body weight of 300 to 400 g) being fasted for 20 hours. The anuses were closed with an adhesive agent, and blood sample were taken from the tail veins after 0.5, 1, 2 and 4 hours to determine quantitatively the plasma levels of the product of Example 1 by means of the biological assay method. As the test microorganisms for the assay, Escherichia coli NIHJ and Proteus rettgeri ATCC 9250 were employed.
A 250 mg portion of finely divided 7β-[2-(5-amino-1,2,4-thiadiazol-3-yl)-(Z)-2-methoxyiminoacetamido]-3- [(6-aminoimidazo[1,2-b]pyridazinium-1-yl)methyl]-3-cephem-4-carboxylate and 4750 mg of Isocacao MO-5 (produced by Kao, Ltd. in Japan) were uniformly sitrred at 40° to 45° C. and cooled to 35° C. under stiring, followed by filling the mixture into a suppository container made of plastics and gradually cooling to obtain a suppository.

[5] = test system: Staphylococcus aureus 1840; experiment: MIC by agar dilution method (Trypticase soy agar), Staphylococcus aureus 1840; assay type: cell-based; conditions: (2) Staphylococcus aureus 1840, 37° C. overnight
Procedure: as §1
(2) Staphylococcus aureus 1840

| SMILES | MIC [1] [µg/mL] | MIC [2] [µg/mL] | MIC [3] [µg/mL] | Concentration levels in plasma, 0.5 hr ([4]; 0.5 hr, individual rats: No. 1, No. 2, No. 3, 30 min) | Concentration levels in plasma, 1 hr ([4]; 1 hr, individual rats: No. 1, No. 2, No. 3, 60 min) | Concentration levels in plasma, 2 hr ([4]; 2 hr, individual rats: No. 1, No. 2, No. 3, 120 min) | Concentration levels in plasma, 4 hr ([4]; 4 hr, individual rats: b116 = No. 1, b117 = No. 2 (No. 3 not tested), 240 min) [ng/mL] | concentration at 4 h ([4]; rat, plasma, 50 mg/kg, 4 hr, individual rats: b116 = No. 1, b117 = No. 2 (No. 3 not tested)) [ng/mL] | MIC [5] [µg/mL] |
| --- | --- | --- | --- | --- | --- | --- | --- | --- | --- |
| CO/N=C(\C(=O)N[C@@H]1C(=O)N2C(C(=O)[O-])=C(C[n+]3ccn4nc(N)ccc43)CS[C@H]12)c1nsc(N)n1 [Example 1, 7β-[2-(5-amino-1,2,4-thiadiazol-3-yl)-(Z)-2-methoxyiminoacetamide]-3-[(6-aminoimidazo[1,2-b]pyridazinium-1-yl)methyl]-3-cephem-4-carboxylate] | 0.39 (≈ 0.735 µM) | 0.39 (≈ 0.735 µM) | 0.2 (≈ 0.377 µM) | 130 ng/mL and 2400 ng/mL and 5700 ng/mL | 740 ng/mL and 4200 ng/mL and 5900 ng/mL | 1700 ng/mL and 4600 ng/mL and 2700 ng/mL | 2800 | 4300 | 0.78 (≈ 1.47 µM) |
| CCO/N=C(\C(=O)N[C@@H]1C(=O)N2C(C(=O)[O-])=C(C[n+]3ccn4nc(N)ccc43)CS[C@H]12)c1nsc(N)n1 [Example 2, 7β-[2-(5-amino-1,2,4-thiadiazol-3-yl)-(Z)-2-ethoxyiminoacetamido]-3-[(6-aminoimidazo[1,2-b]pyridazinium-1-yl)methyl]-3-cephem-4-carboxylate] | 0.78 (≈ 1.43 µM) | 0.39 (≈ 0.716 µM) | 0.39 (≈ 0.716 µM) | – | – | – | – | – | 0.78 (≈ 1.43 µM) |
